Laboratory results published in US20250136606A1, “MODULATORS OF TRPML, THEIR COMPOSITIONS AND METHODS OF USE” (Caraway Therapeutics, Inc., priority 2021, published 2025).

What was measured:
Format in all cases: cell-based
TRPML1 = TRPML1 (Homo sapiens, UniProt Q9GZU1); test: Fluorescent TRPML1 assay (Fluo4-AM calcium fluorescence in doxycycline-induced HEK-293 Trex cells)
Method in brief: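 HEK-293 Trex cells stably expressing surface-directed mutant human TRPML1, induced with 0.5 µg/mL doxycycline overnight, were loaded with 1 µM Fluo4-AM and added to compound (6 nM–20 µM final, half-log steps, triplicate) in Ringer's with 10 mM calcium. Fluorescence ex 480/em 540; EC50 by non-linear regression versus plate controls.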

TRPML2 = target: T1, TRPML2 (Homo sapiens, UniProt Q8IZK6); test: Fluorescent TRPML2 assay (performed as for TRPML1, substituting the TRPML2 subtype)
T1 construct: expressed in transfected cells
T1 sequence (Q8IZK6 1-566): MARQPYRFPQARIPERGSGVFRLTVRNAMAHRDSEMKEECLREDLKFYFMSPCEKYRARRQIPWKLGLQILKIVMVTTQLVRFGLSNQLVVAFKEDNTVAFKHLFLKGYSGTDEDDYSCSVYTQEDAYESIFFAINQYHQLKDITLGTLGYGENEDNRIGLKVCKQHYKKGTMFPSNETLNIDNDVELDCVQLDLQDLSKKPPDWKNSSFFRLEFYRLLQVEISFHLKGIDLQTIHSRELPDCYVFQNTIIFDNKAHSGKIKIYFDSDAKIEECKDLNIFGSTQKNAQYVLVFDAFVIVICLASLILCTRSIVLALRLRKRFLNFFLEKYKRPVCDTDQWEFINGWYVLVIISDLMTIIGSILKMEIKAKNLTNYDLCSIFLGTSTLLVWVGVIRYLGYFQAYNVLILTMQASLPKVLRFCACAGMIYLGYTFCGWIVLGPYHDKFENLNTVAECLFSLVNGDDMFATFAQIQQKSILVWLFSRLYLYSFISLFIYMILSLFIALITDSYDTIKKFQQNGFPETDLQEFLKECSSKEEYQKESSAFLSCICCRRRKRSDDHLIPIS
Method in brief: (§1)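 Doxycycline-induced (0.5 ug/mL) HEK-293 Trex cells stably expressing surface-directed mutant channel were loaded with 1 micromolar Fluo4-AM, resuspended in Ringer's with 10 mM calcium and added to compound plates. Fluorescence (ex 480, em 540 nm) gave percent activity versus on-plate controls; EC50 by non-linear regression.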

TRPML3 = target: T2, TRPML3 (Homo sapiens, UniProt Q8TDD5); test: Fluorescent TRPML3 assay (performed as for TRPML1, substituting the TRPML3 subtype)
T2 construct: expressed in transfected cells
T2 sequence (Q8TDD5 1-553): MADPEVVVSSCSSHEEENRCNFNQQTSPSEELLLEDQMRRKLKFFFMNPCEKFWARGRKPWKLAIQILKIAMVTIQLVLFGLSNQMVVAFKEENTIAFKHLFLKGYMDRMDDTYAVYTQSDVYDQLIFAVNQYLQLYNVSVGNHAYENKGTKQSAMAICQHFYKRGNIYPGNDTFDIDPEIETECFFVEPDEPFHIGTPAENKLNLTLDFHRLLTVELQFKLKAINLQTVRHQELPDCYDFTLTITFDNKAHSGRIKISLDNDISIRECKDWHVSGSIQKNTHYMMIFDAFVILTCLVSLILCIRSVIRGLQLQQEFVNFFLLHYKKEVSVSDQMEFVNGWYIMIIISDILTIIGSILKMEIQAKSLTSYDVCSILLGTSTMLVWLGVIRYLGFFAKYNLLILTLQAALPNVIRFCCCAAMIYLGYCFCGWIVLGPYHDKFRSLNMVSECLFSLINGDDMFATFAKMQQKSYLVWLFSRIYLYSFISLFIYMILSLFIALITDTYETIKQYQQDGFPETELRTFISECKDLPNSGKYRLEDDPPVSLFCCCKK
Method in brief: as §1

TRPML1, sequence (Q9GZU1 whole entry L15A/L16A/L577A/L578A, form open): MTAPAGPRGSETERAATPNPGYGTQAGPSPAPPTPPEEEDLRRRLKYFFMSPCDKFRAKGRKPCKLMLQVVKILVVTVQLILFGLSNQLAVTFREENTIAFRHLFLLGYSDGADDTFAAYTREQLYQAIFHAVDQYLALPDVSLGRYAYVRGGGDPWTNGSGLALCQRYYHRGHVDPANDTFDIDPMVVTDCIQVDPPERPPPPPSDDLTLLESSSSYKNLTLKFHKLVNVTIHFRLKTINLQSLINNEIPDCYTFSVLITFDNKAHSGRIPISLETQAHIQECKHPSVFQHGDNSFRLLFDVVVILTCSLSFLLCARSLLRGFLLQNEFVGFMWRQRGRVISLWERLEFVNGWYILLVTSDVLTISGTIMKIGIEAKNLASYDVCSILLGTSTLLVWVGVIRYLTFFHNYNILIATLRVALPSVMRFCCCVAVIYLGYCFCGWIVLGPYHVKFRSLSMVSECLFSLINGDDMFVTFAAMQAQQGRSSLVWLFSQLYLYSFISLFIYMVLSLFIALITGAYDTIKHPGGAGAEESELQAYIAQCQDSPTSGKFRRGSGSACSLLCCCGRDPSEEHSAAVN

C[C@@H]1CN(c2ncnc3c2c(C(F)(F)F)cn3-c2ccccn2)[C@@H](C)CN1C(=O)OC(C)(C)C [Compound 663, tert-butyl (2R,5S)-2,5-dimethyl-4-(7-(pyridin-2-yl)-5-(trifluoromethyl)-7H-pyrrolo[2,3-d]pyrimidin-4-yl)piperazine-1-carboxylate]
EC50 (TRPML1): 100 to 500 nM
EC50 (TRPML2): > 2000 nM
EC50 (TRPML3): 100 to 500 nM

COc1ccnc(-n2cc(C(F)(F)F)c3c(N4C[C@@H](C)N(C(=O)OC(C)(C)C)C[C@@H]4C)ncnc32)c1 [Compound 664, tert-butyl (2R,5S)-4-(7-(4-methoxypyridin-2-yl)-5-(trifluoromethyl)-7H-pyrrolo[2,3-d]pyrimidin-4-yl)-2,5-dimethylpiperazine-1-carboxylate]
EC50 (TRPML1): < 100 nM
EC50 (TRPML2): 500 to 2000 nM
EC50 (TRPML3): < 100 nM

Cc1ccnc(-n2cc(C(F)(F)F)c3c(N4C[C@@H](C)N(C(=O)OC(C)(C)C)C[C@@H]4C)ncnc32)c1 [Compound 665, tert-butyl (2R,5S)-2,5-dimethyl-4-(7-(4-methylpyridin-2-yl)-5-(trifluoromethyl)-7H-pyrrolo[2,3-d]pyrimidin-4-yl)piperazine-1-carboxylate]
EC50 (TRPML1): < 100 nM
EC50 (TRPML2): 500 to 2000 nM
EC50 (TRPML3): < 100 nM

Cc1cn(-c2cccc(F)c2)c2ncnc(N3C[C@@H](C)N(C(=O)OC(C)(C)C)C[C@@H]3C)c12 [Compound 666, tert-butyl (2R,5S)-4-(7-(3-fluorophenyl)-5-methyl-7H-pyrrolo[2,3-d]pyrimidin-4-yl)-2,5-dimethylpiperazine-1-carboxylate]
EC50 (TRPML1): < 100 nM
EC50 (TRPML2): 100 to 500 nM
EC50 (TRPML3): 100 to 500 nM

Cc1cn(-c2cccc(C(F)(F)F)c2)c2ncnc(N3C[C@@H](C)N(C(=O)OC(C)(C)C)C[C@@H]3C)c12 [Compound 667, tert-butyl (2R,5S)-2,5-dimethyl-4-(5-methyl-7-(3-(trifluoromethyl)phenyl)-7H-pyrrolo[2,3-d]pyrimidin-4-yl)piperazine-1-carboxylate]
EC50 (TRPML1): < 100 nM
EC50 (TRPML2): 100 to 500 nM
EC50 (TRPML3): < 100 nM

Cc1cn(-c2ccccc2)c2ncnc(N3C[C@@H](C)N(C(=O)OC(C)(C)C)C[C@@H]3C)c12 [Compound 668, tert-butyl (2R,5S)-2,5-dimethyl-4-(5-methyl-7-phenyl-7H-pyrrolo[2,3-d]pyrimidin-4-yl)piperazine-1-carboxylate]
EC50 (TRPML1): 100 to 500 nM
EC50 (TRPML2): 500 to 2000 nM
EC50 (TRPML3): 100 to 500 nM

Cc1cn(-c2cccc(C#N)c2)c2ncnc(N3C[C@@H](C)N(C(=O)OC(C)(C)C)C[C@@H]3C)c12 [Compound 669, tert-butyl (2R,5S)-4-(7-(3-cyanophenyl)-5-methyl-7H-pyrrolo[2,3-d]pyrimidin-4-yl)-2,5-dimethylpiperazine-1-carboxylate]
EC50 (TRPML1): < 100 nM
EC50 (TRPML2): 500 to 2000 nM
EC50 (TRPML3): < 100 nM

Cc1cn(-c2cc(F)cc(F)c2)c2ncnc(N3C[C@@H](C)N(C(=O)OC(C)(C)C)C[C@@H]3C)c12 [Compound 670, tert-butyl (2R,5S)-4-(7-(3,5-difluorophenyl)-5-methyl-7H-pyrrolo[2,3-d]pyrimidin-4-yl)-2,5-dimethylpiperazine-1-carboxylate]
EC50 (TRPML1): 100 to 500 nM
EC50 (TRPML2): 500 to 2000 nM
EC50 (TRPML3): < 100 nM

Cc1cn(-c2cccc(Cl)c2)c2ncnc(N3C[C@@H](C)N(C(=O)OC(C)(C)C)C[C@@H]3C)c12 [Compound 671, tert-butyl (2R,5S)-4-(7-(3-chlorophenyl)-5-methyl-7H-pyrrolo[2,3-d]pyrimidin-4-yl)-2,5-dimethylpiperazine-1-carboxylate]
EC50 (TRPML1): < 100 nM
EC50 (TRPML2): 100 to 500 nM
EC50 (TRPML3): < 100 nM

Cc1cn(-c2cncc(F)c2)c2ncnc(N3C[C@@H](C)N(C(=O)OC(C)(C)C)C[C@@H]3C)c12 [Compound 672, tert-butyl (2R,5S)-4-(7-(5-fluoropyridin-3-yl)-5-methyl-7H-pyrrolo[2,3-d]pyrimidin-4-yl)-2,5-dimethylpiperazine-1-carboxylate]
EC50 (TRPML1): 100 to 500 nM
EC50 (TRPML2): 500 to 2000 nM
EC50 (TRPML3): 100 to 500 nM

Cc1cn(-c2ccccn2)c2ncnc(N3C[C@@H](C)N(C(=O)OC(C)(C)C)C[C@@H]3C)c12 [Compound 673, tert-butyl (2R,5S)-2,5-dimethyl-4-(5-methyl-7-(pyridin-2-yl)-7H-pyrrolo[2,3-d]pyrimidin-4-yl)piperazine-1-carboxylate]
EC50 (TRPML1): 100 to 500 nM
EC50 (TRPML2): > 2000 nM
EC50 (TRPML3): 100 to 500 nM

Cc1cn(-c2cncc(C#N)c2)c2ncnc(N3C[C@@H](C)N(C(=O)OC(C)(C)C)C[C@@H]3C)c12 [Compound 675, tert-butyl (2R,5S)-4-(7-(5-cyanopyridin-3-yl)-5-methyl-7H-pyrrolo[2,3-d]pyrimidin-4-yl)-2,5-dimethylpiperazine-1-carboxylate]
EC50 (TRPML1): < 100 nM
EC50 (TRPML2): 100 to 500 nM
EC50 (TRPML3): 100 to 500 nM

Cc1cn(-c2ccc(F)cc2)c2ncnc(N3C[C@@H](C)N(C(=O)OC(C)(C)C)C[C@@H]3C)c12 [Compound 676, tert-butyl (2R,5S)-4-(7-(4-fluorophenyl)-5-methyl-7H-pyrrolo[2,3-d]pyrimidin-4-yl)-2,5-dimethylpiperazine-1-carboxylate]
EC50 (TRPML1): < 100 nM
EC50 (TRPML2): 100 to 500 nM
EC50 (TRPML3): < 100 nM

Cc1cn(-c2cc(F)cc(Cl)c2)c2ncnc(N3C[C@@H](C)N(C(=O)OC(C)(C)C)C[C@@H]3C)c12 [Compound 677, tert-butyl (2R,5S)-4-(7-(3-chloro-5-fluorophenyl)-5-methyl-7H-pyrrolo[2,3-d]pyrimidin-4-yl)-2,5-dimethylpiperazine-1-carboxylate]
EC50 (TRPML1): < 100 nM
EC50 (TRPML2): 100 to 500 nM
EC50 (TRPML3): < 100 nM

Cc1cn(-c2cc(F)ccn2)c2ncnc(N3CCN(C(=O)OC(C)(C)C)[C@H](C)C3)c12 [Compound 678, tert-butyl (R)-4-(7-(4-fluoropyridin-2-yl)-5-methyl-7H-pyrrolo[2,3-d]pyrimidin-4-yl)-2-methylpiperazine-1-carboxylate]
EC50 (TRPML1): 100 to 500 nM
EC50 (TRPML2): 100 to 500 nM
EC50 (TRPML3): 100 to 500 nM

Cc1cn(-c2cc(C(F)(F)F)ccn2)c2ncnc(N3CCN(C(=O)OC(C)(C)C)[C@H](C)C3)c12 [Compound 679, tert-butyl (R)-2-methyl-4-(5-methyl-7-(4-(trifluoromethyl)pyridin-2-yl)-7H-pyrrolo[2,3-d]pyrimidin-4-yl)piperazine-1-carboxylatee]
EC50 (TRPML1): < 100 nM
EC50 (TRPML2): < 100 nM
EC50 (TRPML3): < 100 nM

Cc1cn(-c2cc(C#N)ccn2)c2ncnc(N3CCN(C(=O)OC(C)(C)C)[C@H](C)C3)c12 [Compound 680, tert-butyl (R)-4-(7-(4-cyanopyridin-2-yl)-5-methyl-7H-pyrrolo[2,3-d]pyrimidin-4-yl)-2-methylpiperazine-1-carboxylate]
EC50 (TRPML1): < 100 nM
EC50 (TRPML2): < 100 nM
EC50 (TRPML3): < 100 nM

Cc1cn(-c2cc(F)ccn2)c2ncnc(N3CCN(C(=O)OC(C)(C)C)C[C@@H]3C)c12 [Compound 681, tert-butyl (S)-4-(7-(4-fluoropyridin-2-yl)-5-methyl-7H-pyrrolo[2,3-d]pyrimidin-4-yl)-3-methylpiperazine-1-carboxylate]
EC50 (TRPML1): < 100 nM
EC50 (TRPML2): < 100 nM
EC50 (TRPML3): < 100 nM

Cc1cn(-c2cc(C(F)(F)F)ccn2)c2ncnc(N3CCN(C(=O)OC(C)(C)C)C[C@@H]3C)c12 [Compound 682, tert-butyl (S)-3-methyl-4-(5-methyl-7-(4-(trifluoromethyl)pyridin-2-yl)-7H-pyrrolo[2,3-d]pyrimidin-4-yl)piperazine-1-carboxylate]
EC50 (TRPML1): < 100 nM
EC50 (TRPML2): < 100 nM
EC50 (TRPML3): < 100 nM

Cc1cn(-c2cccc(F)c2)c2ncnc(N3CCN(C(=O)OC(C)(C)C)C[C@@H]3C)c12 [Compound 683, tert-butyl (S)-4-(7-(3-fluorophenyl)-5-methyl-7H-pyrrolo[2,3-d]pyrimidin-4-yl)-3-methylpiperazine-1-carboxylate]
EC50 (TRPML1): < 100 nM
EC50 (TRPML2): 100 to 500 nM
EC50 (TRPML3): < 100 nM
